According to patent US20060241123A1, “Substituted piperidine and piperazine derivatives as melanocortin-4 receptor modulators” (priority 2003, published 2006):
pEC50, pKi: −log10 of the molar value. Like-named read-outs stand apart in the source and are kept apart here. Blank lines part the entries; values can stand above or below the compound they belong to.

Columns and labels:
hMC4-R [1] = molecular target: T1, hMC4-R (Homo sapiens, UniProt P32245); assay: Membrane binding assay, fluorescence polarization, fluorescence labeled NDP-alpha-MSH; details: HEK293 cell membrane preparations
T1 construct: expressed in transfected cells; host or cells: HEK293 cells
Procedure: A membrane binding assay is used to identify competitive inhibitors of fluorescence labeled NDP-alpha-MSH binding to HEK293 cell membrane preparations expressing human melanocortin receptors.
The test compound or unlabeled NDP-alpha-MSH is dispensed at varying concentrations to a 384 well microtiter plate. Fluorescence labeled NDP-alpha-MSH is dispensed at a single concentration, followed by addition of membrane preparations. The plate is incubated for 5 h at room temperature.
The degree of fluorescence polarization is determined with a fluorescence polarization microplate reader.

hMC4-R [2] = molecular target: T1, hMC4-R; assay: Functional cellular cAMP assay, fluorescence polarization, HEK293 cells; type: cell-based; details: for % activation functional assay: compared to stimulation with NDP-alpha-MSH; for pEC50: read-out: EC50 activation of melanocortin-4 receptor, our assay system
Procedure: A functional cellular assay, based on competition between unlabeled CAMP and a fixed quantity of fluorescence labeled cAMP for a limited number of binding sites on a cAMP specific antibody, is used to discriminate melanocortin receptor agonists from antagonists by fluorescence polarization.
HEK293 cells expressing one of the human melanocortin receptors are transferred to 384 well microtiter plates, an appropriate amount of cAMP antibody is added, followed by the addition of different concentrations of the test compound to effect cAMP production. Cells are lysed and a fluorescence labeled cAMP conjugate is dispensed. The plate is read on a fluorescence polarization microplate reader and the amount of cAMP produced as a response to a test compound is compared to the production of cAMP resulting from stimulation with NDP-alpha-MSH. […]

male Wistar rats [3] = assay: Spontaneous feeding paradigm, food intake in rats; type: in vivo, rat; details: for increase in cumulative food intake: compared to vehicle
Procedure: Food intake in rats is measured after i.p. or p.o. administration of the test compound (see e.g. Chen, A. S. et al. Transgenic Res 2000 April; 9(2):145-54).
Selected Examples of the present invention were active in the rat model at 3, 10 or 30 mg/kg after i.p. and p.o. administration of the test compound, respectively, using male Wistar rats (n=4−6).

male Wistar rats [4] = assay: Lipopolysaccharide-induced cachexia in rats (acute model); type: in vivo, rat
Procedure: Prevention or amelioration of cachexia induced by either lipopolysaccharide (LPS) administration or by tumor growth is determined upon i.p. or p.o. administration of test compounds to rats (see e.g. Marks, D. L.; Ling, N and Cone, R. D. Cancer Res 2001 Feb. 15; 61 (4): 1432-8).
1-2 Hours prior to the onset of the dark-phase, individually housed, male Wistar rats (200-300 g) receive an ip or po application of test-compound or vehicle (2 ml/kg, 1-30 mg/kg) which is followed or preceded by an ip injection of either lipopolysaccharide (LPS) or saline (2 ml/kg, 100 μg/kg). Food intake, water intake and body weight are measured at 1-24 hour intervals and differences between experimental groups are evaluated.

[5] = J. Med. Chem. 2002, 45, 4589-4593; cited from earlier work
rat = details: i.v. or p.o.; WO0074679; cited from earlier work
melanocortin-4 receptor [6] = molecular target: T2, melanocortin-4 receptor (Homo sapiens, UniProt P32245); details: cited from earlier work; for % stimulation: Bioorg. Med. Chem. Lett. 2003, 13, 3793-3796
melanocortin-4 receptor [7] = molecular target: T2, melanocortin-4 receptor; details: cited from earlier work
[8] = 3 mg/kg p.o., 4 hours following administration
[9] = 3 mg/kg p.o., 6 hours following administration
[10] = 3 mg/kg p.o., 7 hours following administration

T2 sequence (P32245 whole entry): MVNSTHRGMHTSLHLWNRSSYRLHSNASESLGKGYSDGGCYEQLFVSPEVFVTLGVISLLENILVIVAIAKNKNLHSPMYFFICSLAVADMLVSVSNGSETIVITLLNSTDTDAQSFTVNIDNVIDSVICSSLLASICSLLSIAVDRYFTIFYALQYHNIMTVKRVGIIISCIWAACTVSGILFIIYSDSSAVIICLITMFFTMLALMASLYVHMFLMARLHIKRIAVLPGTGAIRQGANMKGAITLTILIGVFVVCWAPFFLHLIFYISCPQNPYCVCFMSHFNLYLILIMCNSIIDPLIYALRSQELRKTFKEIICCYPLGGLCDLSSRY
T1 sequence (P32245 whole entry): as above

Structure (SMILES): CS(=O)(=O)N1CC2(CCN(C(=O)[C@@H](Cc3ccc(Cl)cc3)NC(=O)c3cc(=O)c4ccccc4o3)CC2)c2ccccc21 [Example 1]
- IC50 (hMC4-R [1]): 80 nM
- activation of the melanocortin-4 receptor in the functional assay (hMC4-R [2]): does not activate
- % activation functional assay (hMC4-R [2]): no activation

Structure (SMILES): CS(=O)(=O)Nc1ccccc1N1CCN(C(=O)[C@@H](Cc2ccc(Cl)cc2)NC(=O)c2cc(=O)c3ccccc3o2)CC1 [Example 8]
- IC50 (hMC4-R [1]): 300 nM
- activation of the melanocortin-4 receptor in the functional assay (hMC4-R [2]): does not activate
- % activation functional assay (hMC4-R [2]): no activation

Structure (SMILES): O=C(N[C@H](Cc1ccc(Cl)cc1)C(=O)N1CCC(Cn2cncn2)(C2CCCCC2)CC1)c1cc(=O)c2ccccc2o1 [Example 15]
- IC50 (hMC4-R [1]): 4.4 nM
- food intake in spontaneous feeding paradigm (male Wistar rats [3]; 3 mg/kg p.o.): significantly increase in food intake
- increase in cumulative food intake (male Wistar rats [3]; [8]): 290%
- increase in cumulative food intake (male Wistar rats [3]; [9]): 186%
- increase in cumulative food intake (male Wistar rats [3]; [10]): 355%
- EC50 (hMC4-R [2]; cAMP production, read-out: hMC4-R functional assay EC50/nM): 700 nM
- % activation functional assay (hMC4-R [2]): 40%

Structure (SMILES): CC(C)(C)NC(=O)C1(C2CCCCC2)CCN(C(=O)[C@@H](Cc2ccc(Cl)cc2)NC(=O)c2cc(=O)c3ccccc3o2)CC1 [Example 66]
- IC50 (hMC4-R [1]): 6.8 nM
- food intake in spontaneous feeding paradigm (male Wistar rats [3]; 3 mg/kg p.o.): significant increase in food intake
- increase in cumulative food intake (male Wistar rats [3]; 3 mg/kg p.o., 2 hours following administration): 410%
- increase in cumulative food intake (male Wistar rats [3]; [8]): 500%
- increase in cumulative food intake (male Wistar rats [3]; [9]): 186%
- increase in cumulative food intake (male Wistar rats [3]; [10]): 272%
- activation of the melanocortin-4 receptor in the functional assay (hMC4-R [2]): no activation
- % activation functional assay (hMC4-R [2]): no activation
- cumulative food intake in LPS-induced cachexia (male Wistar rats [4]; 10 mg/kg p.o.): significant increase in cumulative food intake
- increase in cumulative food intake (male Wistar rats [4]; 10 mg/kg p.o. in combination with LPS, 4 hours following administration, compared to LPS and vehicle): 148%

Structure (SMILES): CS(=O)(=O)NCc1ccccc1N1CCN(C(=O)[C@@H](Cc2ccc(Cl)cc2)NC(=O)c2cc(=O)c3ccccc3o2)CC1 [Example 110]
- IC50 (hMC4-R [1]): 790 nM
- activation of the melanocortin-4 receptor in the functional assay (hMC4-R [2]): does not activate
- % activation functional assay (hMC4-R [2]): no activation

Structure (SMILES): O=C(N[C@H](Cc1ccc(Cl)cc1)C(=O)N1CCN(c2ccccc2C(=O)N2CCCCC2)CC1)c1cc(=O)c2ccccc2o1 [Example 113]
- increase in cumulative food intake (male Wistar rats [3]; 30 mg/kg p.o., 2 hours following administration): 192%
- increase in cumulative food intake (male Wistar rats [3]; 30 mg/kg p.o., 4 hours following administration): 159%
- increase in cumulative food intake (male Wistar rats [3]; 30 mg/kg p.o., 6 hours following administration): 191%
- increase in cumulative food intake (male Wistar rats [3]; 30 mg/kg p.o., 7 hours following administration): 200%

Structure (SMILES): CS(=O)(=O)N1CC2(CCN(C(=O)C[C@@H](Cc3ccc(Cl)cc3)NC(=O)[C@H]3Cc4ccccc4CN3)CC2)c2ccccc21.Cl [Example 212]
- increase in cumulative food intake (male Wistar rats [3]; 10 mg/kg i.p., 2 hours following administration): 708%
- increase in cumulative food intake (male Wistar rats [3]; 10 mg/kg i.p., 4 hours following administration): 725%
- increase in cumulative food intake (male Wistar rats [3]; 10 mg/kg i.p., 6 hours following administration): 224%
- increase in cumulative food intake (male Wistar rats [3]; 10 mg/kg i.p., 8 hours following administration): 167%

Structure (SMILES): CS(=O)(=O)NCc1ccccc1N1CCN(C(=O)C(Cc2ccc(Cl)cc2)NC(=O)C2Cc3ccccc3CN2)CC1 (stereo not drawn) [WO02059108, example 56]
- pKi (melanocortin-4 receptor [7]; J. Med. Chem. 2004, 47, 744-755): 6.68
- pEC50 (melanocortin-4 receptor [6]; J. Med. Chem. 2004, 47, 744-755, read-out: EC50 activation of melanocortin-4 receptor): 7.32

Second part, led by results:

- % activation functional assay (hMC4-R [2]): 102%
Structure (SMILES): O=C(NC(Cc1ccc(Cl)cc1)C(=O)N1CCC(Cn2cncn2)(C2CCCCC2)CC1)C1Cc2ccccc2CN1 (stereo not drawn) [WO0074679, example 2]
- food intake [5]: significantly reduced
- in vivo activity in reflexogenic erections model (rat): in vivo agonist
- melanocortin-4 receptor activation (melanocortin-4 receptor [6]; at 10 μM, J. Med. Chem. 2002, 45, 4589-4593): activate the melanocortin-4 receptor

- pEC50 (hMC4-R [2]; cAMP production): 5.43
- % activation functional assay (hMC4-R [2]): 96%
Structure (SMILES): CS(=O)(=O)Nc1ccccc1N1CCN(C(=O)[C@@H](Cc2ccc(Cl)cc2)NC(=O)[C@H]2Cc3ccccc3CN2)CC1 [WO03009850, example 1, reference compound]
- % stimulation (melanocortin-4 receptor [6]): 100%

- IC50 (hMC4-R [1]): 54 nM
- pEC50 (hMC4-R [2]; cAMP production): 5.96
- % activation functional assay (hMC4-R [2]): 110%
Structure (SMILES): CS(=O)(=O)N1CC2(CCN(C(=O)[C@@H](Cc3ccc(Cl)cc3)NC(=O)[C@H]3Cc4ccccc4CN3)CC2)c2ccccc21 [WO9964002, example 13, reference compound]
- pKi (melanocortin-4 receptor [7]; Current Topics Med. Chem. 2003, 3, 855-883): 8.00
- % stimulation (melanocortin-4 receptor [6]): 100%
